Data reported in patent EP0330824A1, “Use of quinolizine and quinolizinone derivatives in the manufacture of medicaments for the treatment of cardiac arrhythmias” (MERRELL DOW PHARMACEUTICALS INC., priority 1988, dated 1989).
Counter-ions that a name gives are not always drawn.

Columns and labels:
[1] = system: action potential of isolated cardiac tissue; test: Action potential of isolated cardiac tissue (Purkinje fiber or papillary muscle); set-up: species or system dog or guinea pig; details: 10⁻⁸ to 10⁻⁵ moles/liter in tissue bath, stimulation at 1 Hz
Source text: A gas mixture comprised of 95% O₂ and 5% CO₂ is bubbled through the solution while it is maintained within a pH range of from 7.3-7.4.
The heart of an anesthetized mongrel dog is surgically removed and the Purkinje fibers are dissected from either of the ventricles. Alternately, papillary muscles are removed from the right cardiac ventricle of a guinea pig. A Purkinje fiber or a papillary muscle is then placed in a tissue bath which is continuously perfused with modified Tyrode's solution.¹
The electrophysiology of the cardiac tissue is monitored by conventional glass microelectrodes. One microelectrode is inserted into a cell in the cardiac muscle fiber and a ground electrode is positioned in the tissue bath. A conventional oscilloscope is utilized to visualize the action potential waveforms of the cardiac cell. […]
At this point, representative control action potentials are recorded and analyzed by a computer.
After establishing a control action potential, the test compound is introduced into the Modified Tyrode's solution in a quantity such that the test compound is present within the tissue bath in a range of from 10⁻⁸ to 10⁻⁵ moles/liter. After the effect of the test compound has reached a steady state, the action potential is again recorded and analyzed in the manner described above.

[2] = system: Von Bezold-Jarisch Reflex induced by 5-HT; test: Von Bezold-Jarisch Reflex induced by intravenous 5-HT; type: in vivo; details: rat
Source text: The activity of these compounds against 5-HT can be assessed in vivo by measurement of the effect of the compound on the Von Bezold-Jarisch Reflex induced by 5-HT injected intravenously into the rat (see Paintal A.S., Physiol. Rev. 53, 159-227, 1973; J.R. Fozard, Naunyn-Schmiedeberg's Arch. Pharmacol., 326, 1984, 36-44). The transient cardiac slowing arises from an increased afferent vagus activity arising from stimulation by 5-HT of sensory afferent fibers in and around the heart.

| Compound | rate of maximal depolarization of the action potential [1] | suppression of the Von Bezold-Jarisch Reflex response ([2]; 0.01-0.1 mg/kg given intravenously) | suppression of the Von Bezold-Jarisch Reflex response ([2]; 0.25-1 mg/kg given orally) |
| --- | --- | --- | --- |
| O=C(OC1CC2CC3CC(C1)N2CC3=O)c1c[nH]c2ccccc12 (stereo not drawn) [endo-hexahydro-8-(3-indolylcarbonyloxy)-2,6-methano-2H-quinolizin-3(4H)-one] | capable of delaying the rate of maximal depolarization of the action potential |  |  |
| O=C(OC1CC2CC3CC(C1)N2CC3=O)c1c[nH]c2ccccc12 (stereo not drawn) [endo-hexahydro-8-(3-indolylcarbonyloxy)-2,6-methano-2H-quinolizin-3(4H)-one hydrochloride] |  | suppressed the response dose-dependently | suppressed the response dose-dependently |
